Data published in the RepoRT retention time repository (doi:10.1016/j.jhazmat.2019.121712).

Test: Thermo Scientific Acclaim RSLC 120 C18, 100 × 2.1 mm, 2.2 µm, 30 °C; A: 90% water + 10% methanol + 0.01% formic acid + 5 mM ammonium formate; B: methanol + 0.01% formic acid + 5 mM ammonium formate; gradient (min/%B) 0.1/1 3/39 14/99.9 16/99.9
Details: stereoisomer not certain

Compound | LC retention time [min]
CCc1ccc(CCOc2ccc(CC3SC(=O)NC3=O)cc2)nc1 (stereo not given) | 9.09
COP(=O)(OC)OC(C)=CC(=O)N(C)C | 4.5
CCN(CC)CC(=O)Nc1c(C)cccc1C | 4.54
CNCC1CCCCC1(O)c1cccc(OC)c1 (stereo not given) | 5.3
OCc1cc(C(O)CNCCCCCCOCCCCc2ccccc2)ccc1O (stereo not given) | 8.83
CCC(C)(C)C(=O)OC1CC(C)C=C2C=CC(C)C(CCC3CC(O)CC(=O)O3)C21 (stereo not given) | 12.6
CCCCCn1cc(C(=O)c2ccc(C)c3ccccc23)c2ccccc21 | 12.9
O=C1N(CCN2CCCCC2)C(=O)C(c2ccccc2)(N2CCCCC2)C(=O)N1CCN1CCCCC1 | 7.64
C=CCN1CCC23c4c5ccc(O)c4OC2C(=O)CCC3(O)C1C5 (stereo not given) | 3.44
CNCCC=C1c2ccccc2CCc2ccccc21 | 8.51
CCCN(CC)CC1COC2(CCC(C(C)(C)C)CC2)O1 (stereo not given) | 9.32
CCOP(=S)(OCC)SCSC(C)(C)C | 12.2
CCCCCc1cc(O)c2c(c1)OC(C)(C)c1ccc(C)cc1-2 | 13.7
CCN(Cc1ccncc1)C(=O)C(CO)c1ccccc1 (stereo not given) | 6.03
C=C1CC(=CC)C(=O)OC2CC[N+]3([O-])CC=C(COC(=O)C1(C)O)C23 (stereo not given) | 4.5
CCOC(=O)C1(c2ccccc2)CCC=CC1NC (stereo not given) | 5.28
CCOP(=O)(NC(C)C)Oc1ccc(SC)c(C)c1 (stereo not given) | 10.4
CCOC(=O)Nc1cccc(OC(=O)Nc2ccccc2)c1 | 8.57
CCOP(=O)(OCC)Oc1ccc([N+](=O)[O-])cc1 | 8.01
CNC(=O)Oc1ccc2c(c1)C1(C)CCN(C)C1N2C (stereo not given) | 3.89
CC#CCn1c(N2CCCC(N)C2)nc2c1c(=O)n(Cc1nc(C)c3ccccc3n1)c(=O)n2C (stereo not given) | 6.01
CCN(CC)C(=O)c1cccc(C)c1 | 8.2

Compound | LC retention time [min]
CC1C(=O)OC2CCN3CC=C(COC(=O)C(C)(O)C1(C)O)C23 (stereo not given) | 2.92
N#CSCSc1nc2ccccc2s1 | 9.25
CNC(C)CC1CCCCC1 (stereo not given) | 5.74
NC1Cc2cc3c(cc2C1)OCO3 | 3.81
c1cc2c(cc1CN1CCNCC1)OCO2 | 4.22
COP(=S)(OC)Oc1ccc(S(N)(=O)=O)cc1 | 6.19
CCOC(=O)C1(c2ccccc2)CCN(CCC(C#N)(c2ccccc2)c2ccccc2)CC1 | 10.4
COC(=O)C1=COC(C)C2CN3CCc4c([nH]c5ccccc45)C3CC12 (stereo not given) | 6.66
CCCCOC(=O)c1ccccc1C(=O)OCCCC | 12
CCOc1nc2cccc(C(=O)O)c2n1Cc1ccc(-c2ccccc2-c2nn[nH]n2)cc1 | 7.93
CC12CCC(=O)C=C1CCC1C2C(O)CC2(C)C1CCC2(O)C(=O)CO (stereo not given) | 7.84
C=CC=CCC1=C(C)C(OC(=O)C2C(C=C(C)C)C2(C)C)CC1=O (stereo not given) | 12.9
CN1CC(=O)N2C(Cc3c([nH]c4ccccc34)C2c2ccc3c(c2)OCO3)C1=O (stereo not given) | 8.26
CC(Cc1ccccc1)NCCC(c1ccccc1)c1ccccc1 (stereo not given) | 8.89
O=P(Oc1ccccc1)(Oc1ccccc1)Oc1ccccc1 | 11
CN(C)C(=O)NC1CCCCCCC1 | 8.47
CC1(C)C(C(=O)c2cn(CCN3CCOCC3)c3ccccc23)C1(C)C | 10.7
OCCN1CCN(CCCN2c3ccccc3C=Cc3ccccc32)CC1 | 7.83
CC1=NNC(=O)N(N=Cc2cccnc2)C1 | 4.01
COC(=O)C1C2CC3c4[nH]c5cc(OC)ccc5c4CCN3CC2CC(OC(=O)c2cc(OC)c(OC)c(OC)c2)C1OC (stereo not given) | 8.47
CC(C)CNC(=O)N1CCNC1=O | 5.74
COC1C=COC2(C)Oc3c(C)c(O)c4c(O)c(c5c(nc6cc(C)ccn65)c4c3C2=O)NC(=O)C(C)=CC=CC(C)C(O)C(C)C(O)C(C)C(OC(C)=O)C1C (stereo not given) | 10.1

Compound | LC retention time [min]
CNCCCN1c2ccccc2CCc2ccccc21 | 8.08
COc1ccc2c3c1OC1C(O)C=CC4C(C2)NCCC341 (stereo not given) | 3.5
CC(C)C1CCC(C(=O)NC(Cc2ccccc2)C(=O)O)CC1 (stereo not given) | 10.4
COC(=O)C1C(O)CC2CCC1N2C (stereo not given) | 1.38
COc1ccc(CC(C)N)cc1 (stereo not given) | 4.34
CCCCCCn1c(=O)c2c(ncn2C)n(C)c1=O | 9.44
CCN(CC)C(=O)Nc1ccc(OCC(O)CNC(C)(C)C)c(C(C)=O)c1 (stereo not given) | 5.24
CNC(=O)Oc1cccc(N=CN(C)C)c1 | 3.14
COc1ccc2c(c1)N(CC(C)CN(C)C)c1ccccc1S2=O (stereo not given) | 5.98
COc1ccc2c3c([nH]c2c1)C(C)=NCC3 | 5.06
CCCC(C)(COC(N)=O)COC(=O)NC(C)C (stereo not given) | 7.99
COC(=O)Nc1nc2ccccc2[nH]1 | 5.46
CCC(CO)NC(=O)C1C=C2c3cccc4[nH]cc(c34)CC2N(C)C1 (stereo not given) | 4.34
CN(C)CCN1C(=O)c2ccccc2N(C)c2ccccc21 | 5.49
CSc1ccc2c(c1)N(CCC1CCCCN1C)c1ccccc1S2 (stereo not given) | 9.34
CC(=O)Nc1ccc(S(=O)(=O)Nc2cc(C)on2)cc1 | 5.28
Nc1nc(N)c2nc(-c3ccccc3)c(N)nc2n1 | 4.68
CCC(C)(CC)c1cc(NC(=O)c2c(OC)cccc2OC)on1 | 9.42
Cc1ccc(NC=O)c(C)c1 | 6.67
CCC(c1ccccc1)c1c(O)c2ccccc2oc1=O (stereo not given) | 9.05
Cc1cn(C2CC(N=[N+]=[N-])C(CO)O2)c(=O)[nH]c1=O (stereo not given) | 4.56
CON=C(C(=O)OC)c1ccccc1COc1ccccc1C | 10.8

Compound | LC retention time [min]
NC(N)=NC(N)=NCCc1ccccc1 | 4.38
CC12CCC(=O)C=C1CCC1C2CCC2(C)C(C(=O)COC(=O)CCc3ccccc3)CCC12 (stereo not given) | 13
COCc1cnc(C2=NC(C)(C(C)C)C(=O)N2)c(C(=O)O)c1 (stereo not given) | 4.63
COC(=O)C(Cc1ccccc1)NC(=O)C(N)CC(=O)O (stereo not given) | 5.01
CC12CCC3c4ccc(O)cc4CCC3C1CCC2=O (stereo not given) | 9.56
CCCOc1ccc(S(=O)(=O)N2CCN(CC)CC2)cc1-c1nc(=S)c2c([nH]1)c(CCC)nn2C | 10.5
CP(=O)(O)CCC(N)C(=O)O (stereo not given) | 1.44
Cc1noc(NS(=O)(=O)c2ccc(N)cc2)c1C | 4.71
COc1ccc2[nH]cc(CCN(C(C)C)C(C)C)c2c1 | 4.81
CNC(C)Cc1ccc(O)c(O)c1 (stereo not given) | 2.59
CCC(C)Nc1c([N+](=O)[O-])cc(C(C)(C)C)cc1[N+](=O)[O-] (stereo not given) | 13
CCCc1nn(C)c2c(=O)[nH]c(-c3cc(C(=O)CN4CCN(CCO)CC4)ccc3OCC)nc12 | 6.94
CCOC(=O)C1C(OC(=O)c2ccccc2)CC2CCC1N2C (stereo not given) | 5.46
CCOP(=S)(OCC)SCS(=O)C(C)(C)C (stereo not given) | 9
CC(C)(C)C(O)C(Oc1ccc(-c2ccccc2)cc1)n1cncn1 (stereo not given) | 11.3
CC(=O)c1ccc2c(c1)N(CC(C)N(C)C)c1ccccc1S2 (stereo not given) | 7.26
CC(C)C1(C)N=C(c2ncccc2C(=O)O)NC1=O (stereo not given) | 4.1
CN(C)CCN(Cc1ccccc1)c1ccccn1 | 5.86
CC(Cc1ccc(C(C)(C)C)cc1)CN1CCCCC1 (stereo not given) | 8.62
CCC=CCC1=C(C)C(OC(=O)C2C(C=C(C)C(=O)OC)C2(C)C)CC1=O (stereo not given) | 12.2
CCCCn1cc(C(=O)c2cccc3ccccc23)c2cccc(O)c21 | 11.2
COc1ccc2c(c1)N(CC(C)CN(C)C)c1ccccc1S2 (stereo not given) | 8.14

Compound | LC retention time [min]
CC(Cc1ccccc1)NCCC#N (stereo not given) | 4.14
CN1CCC23c4c5ccc(OCCN6CCOCC6)c4OC2C(O)C=CC3C1C5 (stereo not given) | 2.73
CCCn1c(C)c(C(=O)c2cccc3ccccc23)c2ccccc21 | 11.5
CC(COc1ccccc1)NC(C)C(O)c1ccc(O)cc1 (stereo not given) | 5.28
COP(=S)(OC)SCOC(C)=O | 7.16
CN(C)CCCN1c2ccccc2Sc2cccnc21 | 7.21
CC(N)C12CC3CC(CC(C3)C1)C2 (stereo not given) | 6.71
CCc1cc(OC)c(CCN)cc1OC | 6.48
CN1CCCC(CC2c3ccccc3Sc3ccccc32)C1 (stereo not given) | 8.51
Cc1nc(N(C)C)nc(OC(=O)N(C)C)c1C | 7.77
CCCCN(CCCC)SN(C)C(=O)Oc1cccc2c1OC(C)(C)C2 | 13.8
COC(=O)NC(=S)Nc1ccccc1NC(=S)NC(=O)OC | 6.93
OCC(O)CN1CCN(c2ccccc2)CC1 (stereo not given) | 3.79
CC(C)(C)NCC(O)COc1cccc2c1CCC(=O)N2 (stereo not given) | 3.91
COc1ccc(NS(=O)(=O)c2ccc(N)cc2)nn1 | 4.38
c1cc2c(c(NC3=NCCN3)c1)CCC2 | 4.76
CCCc1nn(C)c2c(=S)nc(-c3cc(S(=O)(=O)N4CCN(C)CC4)ccc3OCC)[nH]c12 | 10.6
c1ccc(C(c2ccccc2)C2CCCCN2)cc1 (stereo not given) | 6.3
COCC(=O)N(c1c(C)cccc1C)C(C)C(=O)OC (stereo not given) | 8.22
CN(C)CCOC(C)(c1ccccc1)c1ccccn1 (stereo not given) | 5.18
Cc1ccccc1C(=O)Nc1cccc(OC(C)C)c1 | 9.62
Cc1cc(C)cc(C(=O)N(NC(=O)c2ccc3c(c2C)CCCO3)C(C)(C)C)c1 | 9.93
